According to publication PMC9680032, “Conformationally Locked Carbocyclic Nucleosides Built on a 4′-Hydroxymethyl-3′-hydroxybicyclo[4.1.0]heptane Template. Stereoselective Synthesis and Antiviral Activity” (The Journal of Organic Chemistry, 2022):
≈ marks a conversion by molar mass, not a printed value.

Legend:
[1] = test system: Influenza B virus B/Ned/537/05; experiment: Antiviral CPE assay, Influenza B in MDCK cells; type: cell-based; settings: MDCK cell cultures; for EC50: Influenza B virus
Vero cells = experiment: Cytotoxicity in Vero cell cultures (MTS); type: cell-based, African green monkey; settings: MTS assay
Vaccinia virus = experiment: microbe, parasite or virus in culture; type: cell-based; settings: for EC50: Orthopoxvirus vaccinia, HEL, read-out: Antiviral EC50 Vaccinia virus
Yellow Fever virus = experiment: microbe, parasite or virus in culture; type: cell-based; settings: for EC50: Yellow fever virus, Vero, read-out: Antiviral EC50 Yellow Fever virus, Vero cell cultures
Coxsackie virus B4 [2] = experiment: Antiviral CPE assay, Coxsackie virus B4 in Vero cells; type: cell-based; settings: for EC50: Enterovirus B, B4, Vero
[3] = test system: Respiratory syncytial virus; experiment: Antiviral CPE assay, Respiratory syncytial virus in HEp-2 cells; type: cell-based; settings: for EC50: human respiratory syncytial virus, HEp-2
[4] = test system: Human immunodeficiency virus (ROD); experiment: Antiviral CPE assay, HIV-2 (ROD) in MT-4 cells; type: cell-based; settings: for EC50: Human immunodeficiency virus 2, MT4
Punta Toro virus = experiment: Antiviral CPE assay, Punta Toro virus in Vero cells; type: cell-based; settings: for EC50: Punta Toro virus, Vero
[5] = test system: MDCK (Madin-Darby Canine Kidney) cells; settings: dog
Reo-virus-1 = experiment: Antiviral CPE assay, Reovirus-1 in Vero cells; type: cell-based; settings: for EC50: Vero
[6] = test system: Influenza A virus A/HK/7/87 (H3N2); experiment: Antiviral CPE assay, Influenza A (H3N2) in MDCK cells; type: cell-based; settings: for EC50: Influenza A virus, H3N2, MDCK
[7] = test system: Influenza A virus A/Ned/378/05A (H1N1); experiment: Antiviral CPE assay, Influenza A (H1N1) in MDCK cells; type: cell-based; settings: for EC50: Influenza A virus, H1N1, MDCK
[8] = test system: Herpes simplex virus-2 (G); experiment: microbe, parasite or virus in culture; type: cell-based; settings: for EC50: Human alphaherpesvirus 2, HEL, read-out: Antiviral EC50 Herpes simplex virus-2 (G)
[9] = test system: Herpes simplex virus-1 (KOS); experiment: microbe, parasite or virus in culture; type: cell-based; settings: for EC50: Human alphaherpesvirus 1, HEL, read-out: Antiviral EC50 Herpes simplex virus-1 (KOS)
Sindbis virus = experiment: Antiviral CPE assay, Sindbis virus in Vero cells; type: cell-based; settings: for EC50: Sindbis virus, Vero
[10] = test system: MT-4 cells (human lymphocytic cell line); experiment: Cytotoxicity in MT-4 cell cultures (MTS); settings: MT-4 cell cultures, MTS assay
[11] = test system: Human immunodeficiency virus (IIIB); experiment: Antiviral CPE assay, HIV-1 (IIIB) in MT-4 cells; type: cell-based, human immunodeficiency virus type 1 (HIV-1); settings: for EC50: Human immunodeficiency virus 1, IIIB, MT4
Human Coronavirus (229E) = experiment: microbe, parasite or virus in culture; type: cell-based; settings: for EC50: Human coronavirus 229E, HEL, read-out: Antiviral EC50 Human Coronavirus (229E)
[12] = test system: HEp-2 (Human Epidermoid carcicoma) cells; experiment: Cytotoxicity in HEp-2 cell cultures (MTS); settings: HEp-2 cell cultures, MTS assay
Coxsackie virus B4 [13] = experiment: Antiviral CPE assay, Coxsackie virus B4 in HEp-2 cells; type: cell-based; settings: for EC50: Enterovirus B, B4, HEp-2
Zika virus = experiment: Antiviral CPE assay, Zika virus in Vero cells; type: cell-based; settings: for EC50: Zika virus, Vero
Adeno virus-2 = experiment: organism not typed; type: cell-based; settings: for EC50: HEL, read-out: Antiviral EC50 Adeno virus-2
HEL cells = settings: human
[14] = test system: Vesicular stomatitis virus; experiment: microbe, parasite or virus in culture; type: cell-based; settings: for EC50: Vesicular stomatitis virus, HEp-2, read-out: Antiviral EC50 Vesicular stomatitis virus
[15] = Cytotoxicity in Vero cell cultures (MTS); type: cell-based, African green monkey; settings: African green monkey, Vero cells (kidney epithelial cells), uninfected, MTS assay, read-out: Cytotoxixity CC50
in vitro [16] = settings: dog
[17] = Cytotoxicity in MT-4 cell cultures (MTS); settings: human, Cytotoxixity CC50, MT-4 cell cultures, MTS assay
[18] = Cytotoxicity in HEp-2 cell cultures (MTS); settings: human
in vitro [19] = settings: human, Cytotoxixity CC50

For Cc1cn(C2CC(O)C(CO)C3CC32)c(=O)[nH]c1=O (stereo not drawn) [Compound 2, 1-[(1′S,2′S,4′S,5′R,6′R)-4′-Hydroxy-5′-(hydroxymethyl)bicyclo[4.1.0]hept-2′-yl]-5-methylpyrimidine-2,4(1H,3H)-dione], the “Antiviral EC50 Influenza B virus B/Ned/537/05” value [1] was greater than 50 µg/mL, the “Cytotoxixity CC50” value (Vero cells) was greater than 50 µg/mL and the “Antiviral EC50 Vaccinia virus” value (Vaccinia virus; HEL cell cultures) was greater than 50 µg/mL. The “Antiviral EC50 Yellow Fever virus” value (Yellow Fever virus; Vero cell cultures) was greater than 50 µg/mL, the “Antiviral EC50 Coxsackie virus B4” value (Coxsackie virus B4 [2]) was greater than 50 µg/mL and the “Antiviral EC50 Respiratory syncytial virus” value [3] was greater than 50 µg/mL. The “Antiviral EC50 Human immunodeficiency virus (ROD)” value [4] was greater than 125 µg/mL, the “Antiviral EC50 Punta Toro virus” value (Punta Toro virus) was greater than 50 µg/mL and the “Cytotoxixity CC50” value [5] was greater than 50 µg/mL. For the same molecule, the “Antiviral EC50 Reo-virus-1” value (Reo-virus-1) was greater than 50 µg/mL, the “Antiviral EC50 Influenza A virus A/HK/7/87 (H3N2)” value [6] was greater than 50 µg/mL and the “Antiviral EC50 Influenza A virus A/Ned/378/05 (H1N1)” value [7] was greater than 50 µg/mL. The “Antiviral EC50 Herpes simplex virus-2 (G)” value [8] was greater than 50 µg/mL, the “Antiviral EC50 Herpes simplex virus-1 (KOS)” value [9] was greater than 50 µg/mL and the “Antiviral EC50 Sindbis virus” value (Sindbis virus) was greater than 50 µg/mL. The “Cytotoxixity CC50” value [10] was greater than 125 µg/mL, the “Antiviral EC50 Human immunodeficiency virus (IIIB)” value [11] was greater than 125 µg/mL and the “Antiviral EC50 Human Coronavirus (229E)” value (Human Coronavirus (229E)) was greater than 50 µg/mL. The “Cytotoxixity CC50” value [12] was greater than 50 µg/mL, the “Antiviral EC50 Coxsackie virus B4” value (Coxsackie virus B4 [13]) was greater than 50 µg/mL and the “Antiviral EC50 Zika virus” value (Zika virus) was greater than 50 µg/mL. For the same molecule, the “Antiviral EC50 Adeno virus-2” value (Adeno virus-2) was greater than 50 µg/mL, the “Cytotoxixity CC50” value (HEL cells) was greater than 50 µg/mL and the “Antiviral EC50 Vesicular stomatitis virus” value ([14]; HEp-2 cell cultures) was greater than 50 µg/mL.
In the case of Cc1ccnc2c1NC(=O)c1cccnc1N2C1CC1 [Neviparine, reference compound], the “Antiviral EC50 Human immunodeficiency virus (ROD)” value [4] is reported as greater than 4 µg/mL, the “Cytotoxixity CC50” value [10] is reported as greater than 4 µg/mL and the “Antiviral EC50 Human immunodeficiency virus (IIIB)” value [11] is reported as 0.075 µg/mL.
Molecule NC(=O)c1nnn(C2CC(O)C(CO)C3CC32)c1N (stereo not drawn) [Compound 3b, 5-Amino-1-[(1′S,2′S,4′R,5′R,6′R)-4′-hydroxy-5′-(hydroxymethyl)bicyclo-[4.1.0]hept-2′-yl]-1H-1,2,3-triazole-4-carboxamide] has an EC50 [1] greater than 50 µg/mL, a CC50 [15] greater than 50 µg/mL and an EC50 (Vaccinia virus) greater than 50 µg/mL. The EC50 (Yellow Fever virus) was greater than 50 µg/mL, the EC50 (Coxsackie virus B4 [2]) was greater than 50 µg/mL and the EC50 [3] was greater than 50 µg/mL. It also gave an EC50 [4] greater than 125 µg/mL, an EC50 (Punta Toro virus) greater than 50 µg/mL and an EC50 (Reo-virus-1) greater than 50 µg/mL. The EC50 [6] was greater than 50 µg/mL, the EC50 [7] was greater than 50 µg/mL and the EC50 [8] was greater than 50 µg/mL. For the same molecule, the EC50 [9] was greater than 50 µg/mL, the CC50 (in vitro [16]) was greater than 50 µg/mL and the EC50 (Sindbis virus) was greater than 50 µg/mL. The CC50 [17] was greater than 125 µg/mL, the EC50 [11] was greater than 125 µg/mL and the EC50 (Human Coronavirus (229E)) was greater than 50 µg/mL. It also gave a CC50 [18] greater than 50 µg/mL, an EC50 (Coxsackie virus B4 [13]) greater than 50 µg/mL and an EC50 (Zika virus) greater than 50 µg/mL. The EC50 (Adeno virus-2) was greater than 50 µg/mL, the melting point was 210 to 213 °C and the EC50 [14] was greater than 50 µg/mL.
For Nc1ccn([C@@H]2CS[C@H](CO)O2)c(=O)n1 [Lamivudine, reference compound], the EC50 [4] was 2.27 µg/mL (≈ 9.9 µM), the EC50 [11] was 0.58 µg/mL (≈ 2.53 µM) and the CC50 (in vitro [19]) was greater than 20 µg/mL.
In the case of Cc1cn(C2CC(O)C(CO)C3CC32)c(=O)[nH]c1=O (stereo not drawn) [Compound 1a, 1-((1′S,2′S,4′R,5′R,6′R)-4′-Hydroxy-5′-(hydroxymethyl)bicyclo[4.1.0]heptan-2′-yl)-5-methylpyrimidine-2,4(1H,3H)-dione], the EC50 [1] is reported as greater than 50 µg/mL, the CC50 [15] is reported as greater than 50 µg/mL and the EC50 (Vaccinia virus) is reported as greater than 50 µg/mL. It also gave an EC50 (Yellow Fever virus) greater than 50 µg/mL, an EC50 (Coxsackie virus B4 [2]) greater than 50 µg/mL and an EC50 [3] greater than 50 µg/mL. For the same molecule, the EC50 [4] was greater than 99.1 µg/mL, the EC50 (Punta Toro virus) was greater than 50 µg/mL and the EC50 (Reo-virus-1) was greater than 50 µg/mL. The EC50 [6] was greater than 50 µg/mL, the EC50 [7] was greater than 50 µg/mL and the EC50 [8] was greater than 50 µg/mL. For the same molecule, the EC50 [9] was greater than 50 µg/mL, the CC50 (in vitro [16]) was greater than 50 µg/mL and the EC50 (Sindbis virus) was greater than 50 µg/mL. For the same molecule, the CC50 [17] was 99.1 µg/mL (≈ 372 µM), the EC50 [11] was greater than 99.1 µg/mL and the EC50 (Human Coronavirus (229E)) was greater than 50 µg/mL. It also gave a CC50 [18] greater than 50 µg/mL, an EC50 (Coxsackie virus B4 [13]) greater than 50 µg/mL and an EC50 (Zika virus) greater than 50 µg/mL. It also gave an EC50 (Adeno virus-2) greater than 50 µg/mL, a melting point of 189 to 191 °C and an EC50 [14] greater than 50 µg/mL.
